System: Mannheimia haemolytica
Assay: minimum inhibitory concentration (MIC)
Procedure: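 Broth microdilution MIC (Sensititre BOPO7F bovine plate, CLSI methods) of 19 antimicrobials against field isolates of P. multocida, M. haemolytica, H. somni (deep nasopharyngeal swabs) and E. coli, Enterococcus spp. (rectal swabs) from weaned dairy heifers. Incubation 16-24 h at 35 C. MIC is the lowest concentration preventing visible growth. Values with <= or > lie at the tested range limits. Trimethoprim-sulfamethoxazole is given as the trimethoprim component of a 1:19 mixture.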

COc1cc(NS(=O)(=O)c2ccc(N)cc2)nc(OC)n1 [sulfadimethoxine]
Conditions	minimum inhibitory concentration [µg/mL]
isolate (source animal id): 8	> 256
isolate (source animal id): 13	> 256
isolate (source animal id): 18	> 256
isolate (source animal id): 21	> 256
isolate (source animal id): 25	> 256
isolate (source animal id): 27	> 256
isolate (source animal id): 28	≤ 256
isolate (source animal id): 30	> 256
isolate (source animal id): 31	≤ 256
isolate (source animal id): 32	> 256
isolate (source animal id): 34	> 256
isolate (source animal id): 36	> 256
isolate (source animal id): 37	> 256
isolate (source animal id): 40	> 256
isolate (source animal id): 41	> 256
isolate (source animal id): 43	> 256
isolate (source animal id): 46	> 256
isolate (source animal id): 49	> 256
isolate (source animal id): 50	> 256
isolate (source animal id): 51	> 256
isolate (source animal id): 52	> 256
isolate (source animal id): 53	> 256
isolate (source animal id): 55	> 256
isolate (source animal id): 56	> 256
isolate (source animal id): 57	> 256
isolate (source animal id): 100	> 256
isolate (source animal id): 103	> 256
isolate (source animal id): 107	> 256
isolate (source animal id): 108	> 256
isolate (source animal id): 112	> 256
isolate (source animal id): 113	> 256
isolate (source animal id): 121	> 256
isolate (source animal id): 122	> 256
isolate (source animal id): 123	> 256
isolate (source animal id): 126	> 256
isolate (source animal id): 133	> 256
isolate (source animal id): 135	> 256
isolate (source animal id): 138	> 256
isolate (source animal id): 141	> 256
isolate (source animal id): 142	> 256
isolate (source animal id): 145	> 256
isolate (source animal id): 149	≤ 256
isolate (source animal id): 151	≤ 256
isolate (source animal id): 152	≤ 256
isolate (source animal id): 154	≤ 256
isolate (source animal id): 159	> 256
isolate (source animal id): 162	> 256
isolate (source animal id): 170	> 256
isolate (source animal id): 171	> 256
isolate (source animal id): 172	> 256
isolate (source animal id): 173	> 256
isolate (source animal id): 179	> 256
isolate (source animal id): 180	> 256
isolate (source animal id): 183	> 256
isolate (source animal id): 186	> 256
isolate (source animal id): 187	> 256
isolate (source animal id): 188	> 256
isolate (source animal id): 190	> 256
isolate (source animal id): 191	> 256
isolate (source animal id): 192	> 256
isolate (source animal id): 201	> 256
isolate (source animal id): 202	> 256
isolate (source animal id): 209	> 256
isolate (source animal id): 211	≤ 256
isolate (source animal id): 220	> 256
isolate (source animal id): 221	> 256
isolate (source animal id): 223	> 256
isolate (source animal id): 233	> 256
isolate (source animal id): 237	≤ 256
isolate (source animal id): 241	> 256
isolate (source animal id): 252	> 256
isolate (source animal id): 253	> 256
isolate (source animal id): 259	> 256
isolate (source animal id): 260	> 256
isolate (source animal id): 262	> 256
isolate (source animal id): 282	> 256
isolate (source animal id): 287	> 256
isolate (source animal id): 288	> 256
isolate (source animal id): 291	≤ 256
isolate (source animal id): 293	> 256
isolate (source animal id): 298	> 256
isolate (source animal id): 299	> 256
isolate (source animal id): 300	≤ 256
isolate (source animal id): 302	> 256
isolate (source animal id): 304	> 256
isolate (source animal id): 306	> 256
isolate (source animal id): 308	≤ 256
isolate (source animal id): 309	≤ 256
isolate (source animal id): 313	> 256
isolate (source animal id): 318	> 256
isolate (source animal id): 320	≤ 256
isolate (source animal id): 321	> 256
isolate (source animal id): 323	> 256
isolate (source animal id): 324	> 256
isolate (source animal id): 326	> 256
isolate (source animal id): 328	> 256
isolate (source animal id): 329	> 256
isolate (source animal id): 333	> 256
isolate (source animal id): 335	> 256
isolate (source animal id): 338	> 256

From the supplement of paper PMC8612539
